Test results: a compilation of properties of binary mixtures (doi:10.1016/j.molliq.2020.112481)

Assay: xn = mol fraction of the nth substance listed
Settings: 100 kPa

## CCCC[n+]1ccn(C)c1.O=S(=O)([O-])C(F)(F)F + OCCO
298.15 K, x1 = 0.1936
  speed of sound: 1517.5 m/s
  viscosity: 17.41 mPa·s
298.15 K, x1 = 0.2985
  speed of sound: 1478.8 m/s
  viscosity: 20.69 mPa·s
298.15 K, x1 = 0.3912
  speed of sound: 1456.1 m/s
  viscosity: 23.59 mPa·s
298.15 K, x1 = 0.4999
  speed of sound: 1437.2 m/s
  viscosity: 26.6 mPa·s
298.15 K, x1 = 0.6055
  speed of sound: 1423.5 m/s
  viscosity: 29.8 mPa·s
298.15 K, x1 = 0.7966
  speed of sound: 1410.5 m/s
  viscosity: 42 mPa·s
298.15 K, x1 = 0.9035
  speed of sound: 1404.8 m/s
  viscosity: 57.9 mPa·s
298.15 K, x1 = 1
  speed of sound: 1393.2 m/s
  viscosity: 82.4 mPa·s
303.15 K, x1 = 0.1936
  speed of sound: 1505.9 m/s
  viscosity: 14.07 mPa·s
303.15 K, x1 = 0.2985
  speed of sound: 1467.3 m/s
  viscosity: 16.81 mPa·s
303.15 K, x1 = 0.3912
  speed of sound: 1444.6 m/s
  viscosity: 19.28 mPa·s
303.15 K, x1 = 0.6055
  speed of sound: 1412.2 m/s
  viscosity: 24.5 mPa·s
303.15 K, x1 = 0.7966
  speed of sound: 1399.2 m/s
  viscosity: 34.3 mPa·s
303.15 K, x1 = 0.9035
  speed of sound: 1393.6 m/s
  viscosity: 47 mPa·s
303.15 K, x1 = 1
  speed of sound: 1382.8 m/s
  viscosity: 66.7 mPa·s
308.15 K, x1 = 0.0926
  speed of sound: 1551.3 m/s
  viscosity: 10.51 mPa·s
308.15 K, x1 = 0.1936
  speed of sound: 1494.4 m/s
  viscosity: 11.7 mPa·s
308.15 K, x1 = 0.3912
  speed of sound: 1433.2 m/s
  viscosity: 15.95 mPa·s
308.15 K, x1 = 0.6055
  speed of sound: 1400.9 m/s
  viscosity: 20.86 mPa·s
308.15 K, x1 = 0.9035
  speed of sound: 1382.5 m/s
  viscosity: 38.6 mPa·s
308.15 K, x1 = 1
  speed of sound: 1371.7 m/s
  viscosity: 52.9 mPa·s
313.15 K, x1 = 0.0926
  speed of sound: 1539.6 m/s
  viscosity: 8.82 mPa·s
313.15 K, x1 = 0.1936
  speed of sound: 1482.8 m/s
  viscosity: 9.82 mPa·s
313.15 K, x1 = 0.3912
  speed of sound: 1421.9 m/s
  viscosity: 13.48 mPa·s
313.15 K, x1 = 0.6055
  speed of sound: 1389.8 m/s
  viscosity: 17.79 mPa·s
313.15 K, x1 = 0.7966
  speed of sound: 1376.9 m/s
  viscosity: 24.6 mPa·s
313.15 K, x1 = 0.9035
  speed of sound: 1371.5 m/s
  viscosity: 32.3 mPa·s
313.15 K, x1 = 1
  speed of sound: 1360.7 m/s
  viscosity: 43.7 mPa·s
318.15 K, x1 = 0.1936
  speed of sound: 1471.4 m/s
  viscosity: 8.3 mPa·s
318.15 K, x1 = 0.2985
  speed of sound: 1433.2 m/s
  viscosity: 9.91 mPa·s
318.15 K, x1 = 0.3912
  speed of sound: 1410.7 m/s
  viscosity: 11.51 mPa·s
318.15 K, x1 = 0.6055
  speed of sound: 1378.7 m/s
  viscosity: 15.37 mPa·s
318.15 K, x1 = 0.6922
  speed of sound: 1371.2 m/s
  viscosity: 17.42 mPa·s
318.15 K, x1 = 0.7966
  speed of sound: 1365.9 m/s
  viscosity: 21.09 mPa·s
318.15 K, x1 = 0.9035
  speed of sound: 1360.5 m/s
  viscosity: 27.3 mPa·s
318.15 K, x1 = 1
  speed of sound: 1349.9 m/s
  viscosity: 36.3 mPa·s
323.15 K, x1 = 0.0926
  speed of sound: 1516.4 m/s
  viscosity: 6.2 mPa·s
323.15 K, x1 = 0.2985
  speed of sound: 1421.9 m/s
  viscosity: 8.4 mPa·s
323.15 K, x1 = 0.4999
  speed of sound: 1381 m/s
  viscosity: 11.65 mPa·s
323.15 K, x1 = 0.6055
  speed of sound: 1367.7 m/s
  viscosity: 13.42 mPa·s
323.15 K, x1 = 0.6922
  speed of sound: 1360.3 m/s
  viscosity: 15.17 mPa·s
323.15 K, x1 = 0.9035
  speed of sound: 1349.7 m/s
  viscosity: 23.24 mPa·s
323.15 K, x1 = 1
  speed of sound: 1338.8 m/s
  viscosity: 30.6 mPa·s

## OCCO + CCCC[n+]1ccn(C)c1.O=S(=O)([O-])C(F)(F)F
298.15 K, x2 = 0
  speed of sound: 1655 m/s
  viscosity: 16.39 mPa·s
308.15 K, x2 = 0
  speed of sound: 1631.5 m/s
  viscosity: 11.16 mPa·s
313.15 K, x2 = 0
  speed of sound: 1619.7 m/s
  viscosity: 9.34 mPa·s
318.15 K, x2 = 0
  speed of sound: 1607.9 m/s
  viscosity: 7.91 mPa·s
323.15 K, x2 = 0
  speed of sound: 1596.1 m/s
  viscosity: 6.75 mPa·s
